Reference: patent US20060069132A1, “Azolecarboxamide herbicides” (priority 2004, published 2006)

Legend:
[1] = tested on: morningglory; assay: Test A pre-/postemergence herbicide test; format: in vivo, Ipomoea spp.
Outline: (§1)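 Both application timings were run together: directed soil spray over freshly planted seeds in sandy loam, and runoff spray onto 2–10 cm seedlings. Evaluation after ~10 days in greenhouse used a 0–100 visual scale versus untreated controls.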

[2] = tested on: small flower umbrella sedge; assay: Test B flooded paddy test; format: in vivo, Cyperus difformis; conditions: 1000 g ai/ha, scale 0 to 100 (0 no effect, 100 complete control)
Outline: (§2)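 Visual ratings, 0 (no effect) to 100 (complete control), made versus controls after 13–15 d greenhouse. Paddy plants treated at 2-leaf stage; postemergence plants at 1- to 4-leaf stage, 2–18 cm tall.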

[3] = tested on: ducksalad; assay: Test C flooded paddy test; format: in vivo, Heteranthera limosa
[4] = tested on: barnyardgrass; assay: Test C flooded paddy test; format: in vivo, Echinochloa crus-galli
Outline: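 Greenhouse test with a 12–14 day hold after application and visual comparison with controls. Emerged plants were 1- to 4-leaf stage (2–18 cm) when sprayed postemergence, and the paddy barnyardgrass was at 2 leaves under flooded conditions. 100 = complete control.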

[5] = tested on: rice; assay: Test B flooded paddy test; format: in vivo, Oryza sativa; conditions: 1000 g ai/ha, scale 0 to 100 (0 no effect, 100 complete control)
Outline: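 Scale 0–100: zero equals no visible effect, 100 complete control, judged by eye relative to controls. Timing: 13 to 15 days in greenhouse post-treatment. Growth stage at spraying: two leaves (paddy) or one to four leaves, 2–18 cm (postemergence).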

[6] = tested on: barnyardgrass; assay: Test B flooded paddy test; format: in vivo, Echinochloa crus-galli; conditions: 1000 g ai/ha, scale 0 to 100 (0 no effect, 100 complete control)
Outline: as §2

[7] = tested on: velvetleaf; assay: Test A pre-/postemergence herbicide test; format: in vivo, Abutilon theophrasti
Outline: as §1

[8] = tested on: redroot pigweed; assay: Test A pre-/postemergence herbicide test; format: in vivo, Amaranthus retroflexus
Outline: as §1

[9] = tested on: rice; assay: Test C flooded paddy test; format: in vivo, Oryza sativa
Outline: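 Postemergence sprays applied to plants 2 to 18 cm tall (1- to 4-leaf stage); paddy species grown to 2-leaf stage under flooding. After 12 to 14 days in greenhouse, visual rating versus untreated controls on 0–100 scale (0 no effect, 100 complete control).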

[10] = tested on: smallflower umbrella sedge; assay: Test C flooded paddy test; format: in vivo, Cyperus difformis
[11] = tested on: barnyardgrass; assay: Test A pre-/postemergence herbicide test; format: in vivo, Echinochloa crus-galli
Outline: as §1

[12] = tested on: ducksalad; assay: Test B flooded paddy test; format: in vivo, Heteranthera limosa; conditions: 1000 g ai/ha, scale 0 to 100 (0 no effect, 100 complete control)
Outline: as §2

[13] = tested on: giant foxtail; assay: Test A pre-/postemergence herbicide test; format: in vivo, Setaria faberi
Outline: as §1

[14] = tested on: large crabgrass; assay: Test A pre-/postemergence herbicide test; format: in vivo, Digitaria sanguinalis
Outline: as §1

[15] = tested on: large crabgrass; assay: Test B pre-/postemergence herbicide test; format: in vivo, Digitaria sanguinalis; conditions: for Crabgrass, Large plant response rating: postemergence
Outline: (§3)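 Formulation: non-phytotoxic solvent mix with surfactant. Timing: preemergence on seed and postemergence on 2–18 cm plants, applied concurrently. Readout after 13–15 d greenhouse: visual 0–100 control rating against controls.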

[16] = tested on: blackgrass; assay: Test B postemergence herbicide test; format: in vivo, Alopecurus myosuroides; conditions: postemergence
Outline: as §2

[17] = tested on: corn; assay: Test B pre-/postemergence herbicide test; format: in vivo, Zea mays; conditions: for Corn plant response rating: postemergence
Outline: as §3

[18] = tested on: lambsquarters; assay: Test B pre-/postemergence herbicide test; format: in vivo, Chenopodium album; conditions: for Lambsquarters plant response rating: postemergence
Outline: as §3

[19] = tested on: morningglory; assay: Test B pre-/postemergence herbicide test; format: in vivo, Ipomoea coccinea; conditions: for Morningglory plant response rating: postemergence
Outline: (§4)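 Visual rating, 0 (no effect) to 100 (complete control), versus untreated controls after 13–15 d in greenhouse. Pre- and postemergence applications (postemergence plants 2–18 cm, 1–4 leaves); flooded paddy arm at 2-leaf stage. Compounds in non-phytotoxic solvent plus surfactant.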

[20] = tested on: barnyardgrass; assay: Test B pre-/postemergence herbicide test; format: in vivo, Echinochloa crus-galli; conditions: for Barnyardgrass plant response rating: postemergence
Outline: as §4

[21] = tested on: velvetleaf; assay: Test B pre-/postemergence herbicide test; format: in vivo, Abutilon theophrasti; conditions: 100 is complete control
Outline: as §3

[22] = tested on: giant foxtail; assay: Test B pre-/postemergence herbicide test; format: in vivo, Setaria faberi; conditions: for Foxtail, Giant plant response rating: postemergence
Outline: as §3

[23] = tested on: wild oat; assay: Test B postemergence herbicide test; format: in vivo, Avena fatua; conditions: postemergence
Outline: (§5)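 Formulated test chemicals went onto postemergence plants measuring 2 to 18 cm, at one to four leaves. For the paddy assay, species had reached two leaves. Scoring took place 13–15 days later by eye, relative to untreated plants, using 0 for no effect up to 100 for full control.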

[24] = tested on: Surinam grass; assay: Test B pre-/postemergence herbicide test; format: in vivo, Urochloa decumbens; conditions: for Surinam Grass plant response rating: postemergence
Outline: as §3

[25] = tested on: pigweed; assay: Test B pre-/postemergence herbicide test; format: in vivo, Amaranthus retroflexus; conditions: for Pigweed plant response rating: postemergence
Outline: as §3

[26] = tested on: cocklebur; assay: Test B pre-/postemergence herbicide test; format: in vivo, Xanthium strumarium; conditions: for Cocklebur plant response rating: postemergence
Outline: as §4

[27] = tested on: wheat; assay: Test B postemergence herbicide test; format: in vivo, Triticum aestivum; design: key to Wheat plant response rating: 0 = no effect, 100 = complete control; conditions: postemergence
Outline: as §5

[28] = Postemergence, 500 g ai/ha, 0 to 100 scale, 0 no effect, 100 complete control
[29] = Postemergence, 2000 g ai/ha, 0 to 100 scale, 0 no effect, 100 complete control
[30] = Preemergence, 2000 g ai/ha, visual rating, 0 to 100 scale (0 no effect, 100 complete control)
[31] = preemergence, 500 g ai/ha, visual injury, 0 to 100 scale (0 no effect, 100 complete control)
[32] = 125 g ai/ha, scale 0 to 100 (0 no effect, 100 complete control)
[33] = 250 g ai/ha, scale of 0 to 100, 0 is no effect, 100 is complete control
[34] = 500 g ai/ha, visual rating after 12 to 14 days, scale 0 to 100 (0 no effect, 100 complete control)
[35] = 125 g ai/ha, 0 is no effect, 100 is complete control, preemergence
[36] = 125 g ai/ha, visual rating, scale 0 (no effect) to 100 (complete control)
[37] = 500 g ai/ha, visual rating, 0 = no effect, 100 = complete control, preemergence
[38] = 500 g ai/ha, scale 0 to 100, 0 is no effect, 100 is complete control

CCOC(=O)c1cncc(NC(=O)c2cc(C(C)(C)C)nn2CC)c1 [Compound 255]
Morningglory plant response rating [1, 28]: 10
Plant response rating, Morningglory [1, 29]: 25
Morningglory plant response rating [1, 30]: 70
Morningglory plant response rating [1, 31]: 30
Sedge, Umbrella plant response rating [2]: 80
Ducksalad plant response rating ([3]; 62 g ai/ha, scale 0 to 100): 0
Ducksalad plant response rating [3, 32]: 10
Ducksalad plant response rating [3, 33]: 35
Plant response rating, Ducksalad [3, 34]: 40
Barnyardgrass plant response rating ([4]; 62 g ai/ha, scale 0 to 100 (0 no effect, 100 complete control)): 0
Barnyardgrass plant response rating [4, 32]: 10
Barnyardgrass plant response rating [4, 33]: 25
Plant response rating, Barnyardgrass [4, 34]: 35
Rice plant response rating [5]: 70
Barnyardgrass plant response rating [6]: 70
Velvetleaf plant response rating [7, 28]: 35
Plant response rating, Velvetleaf [7, 29]: 50
Velvetleaf plant response rating [7, 30]: 50
Velvetleaf plant response rating [7, 31]: 30
Pigweed plant response rating [8, 28]: 70
Plant response rating, Pigweed [8, 29]: 100
Pigweed plant response rating [8, 30]: 100
Pigweed plant response rating [8, 31]: 90
Rice plant response rating ([9]; 62 g ai/ha, scale 0 to 100): 0
Rice plant response rating [9, 32]: 0
Rice plant response rating [9, 33]: 45
Plant response rating, Rice [9, 34]: 50
Sedge, Umbrella plant response rating ([10]; 62 g ai/ha, scale 0 to 100): 0
Sedge, Umbrella plant response rating [10, 32]: 20
Sedge, Umbrella plant response rating [10, 33]: 35
Plant response rating, Sedge, Umbrella [10, 34]: 45
Barnyardgrass plant response rating [11, 28]: 40
Plant response rating, Barnyardgrass [11, 29]: 70
Barnyardgrass plant response rating [11, 30]: 75
Barnyardgrass plant response rating [11, 31]: 55
Ducksalad plant response rating [12]: 80
Foxtail, Giant plant response rating [13, 28]: 30
Plant response rating, Foxtail, Giant [13, 29]: 55
Foxtail, Giant plant response rating [13, 30]: 60
Foxtail, Giant plant response rating [13, 31]: 45
Crabgrass, Large plant response rating [14, 28]: 20
Plant response rating, Crabgrass, Large [14, 29]: 40
Crabgrass, Large plant response rating [14, 30]: 55
Crabgrass, Large plant response rating [14, 31]: 35

CCc1nn(C2CCCC2)nc1C(=O)Nc1cccc(C(=O)N2CC=CC2)c1 [Compound 354]
Morningglory plant response rating [1, 28]: 20
Plant response rating, Morningglory [1, 29]: 85
Morningglory plant response rating [1, 30]: 20
Morningglory plant response rating [1, 31]: 15
Plant response rating (0 to 100 scale), Crabgrass, Large [15, 35]: 20
Crabgrass, Large plant response rating [15, 36]: 0
Plant response rating, Crabgrass, Large [15, 37]: 80
Crabgrass, Large plant response rating [15, 38]: 10
Sedge, Umbrella plant response rating [2]: 50
Blackgrass plant response rating [16, 36]: 10
Blackgrass plant response rating [16, 38]: 20
Plant response rating (0 to 100 scale), Corn [17, 35]: 20
Corn plant response rating [17, 36]: 0
Plant response rating, Corn [17, 37]: 20
Corn plant response rating [17, 38]: 0
Lambsquarters plant response rating [18, 36]: 10
Plant response rating, Lambsquarters [18, 37]: 100
Lambsquarters plant response rating [18, 38]: 50
Plant response rating (0 to 100 scale), Morningglory [19, 35]: 0
Morningglory plant response rating [19, 36]: 30
Plant response rating, Morningglory [19, 37]: 0
Morningglory plant response rating [19, 38]: 60
Plant response rating (0 to 100 scale), Barnyardgrass [20, 35]: 0
Barnyardgrass plant response rating [20, 36]: 0
Plant response rating, Barnyardgrass [20, 37]: 60
Barnyardgrass plant response rating [20, 38]: 0
Plant response rating (0 to 100 scale), Velvetleaf ([21]; 125 g ai/ha, 0 is no effect, preemergence): 0
Velvetleaf plant response rating ([21]; postemergence, 500 g ai/ha, scale 0 to 100, 0 is no effect): 10
Rice plant response rating [5]: 50
Plant response rating (0 to 100 scale), Foxtail, Giant [22, 35]: 10
Foxtail, Giant plant response rating [22, 36]: 10
Plant response rating, Foxtail, Giant [22, 37]: 70
Foxtail, Giant plant response rating [22, 38]: 20
Barnyardgrass plant response rating [6]: 40
Velvetleaf plant response rating [7, 28]: 50
Plant response rating, Velvetleaf [7, 29]: 70
Velvetleaf plant response rating [7, 30]: 45
Velvetleaf plant response rating [7, 31]: 5
Pigweed plant response rating [8, 28]: 70
Plant response rating, Pigweed [8, 29]: 80
Pigweed plant response rating [8, 30]: 70
Pigweed plant response rating [8, 31]: 60
Oat, Wild plant response rating [23, 36]: 0
Oat, Wild plant response rating [23, 38]: 20
Barnyardgrass plant response rating [11, 28]: 20
Plant response rating, Barnyardgrass [11, 29]: 70
Barnyardgrass plant response rating [11, 30]: 55
Barnyardgrass plant response rating [11, 31]: 0
Plant response rating (0 to 100 scale), Surinam Grass [24, 35]: 0
Surinam Grass plant response rating [24, 36]: 0
Plant response rating, Surinam Grass [24, 37]: 20
Surinam Grass plant response rating [24, 38]: 20
Ducksalad plant response rating [12]: 50
Plant response rating (0 to 100 scale), Pigweed [25, 35]: 0
Pigweed plant response rating [25, 36]: 40
Plant response rating, Pigweed [25, 37]: 90
Pigweed plant response rating [25, 38]: 50
Plant response rating (0 to 100 scale), Cocklebur [26, 35]: 0
Cocklebur plant response rating [26, 36]: 10
Plant response rating, Cocklebur [26, 37]: 0
Cocklebur plant response rating [26, 38]: 20
Wheat plant response rating [27, 36]: 0
Wheat plant response rating [27, 38]: 20
Foxtail, Giant plant response rating [13, 28]: 10
Plant response rating, Foxtail, Giant [13, 29]: 50
Foxtail, Giant plant response rating [13, 30]: 80
Foxtail, Giant plant response rating [13, 31]: 15
Crabgrass, Large plant response rating [14, 28]: 10
Plant response rating, Crabgrass, Large [14, 29]: 20
Crabgrass, Large plant response rating [14, 30]: 20
Crabgrass, Large plant response rating [14, 31]: 10
